The test system of one assay is peritoneal macrophages. As to the kind of experiment: Phagocytosis and killing of Saccharomyces cerevisiae by peritoneal macrophages of treated infected mice. Format: in vivo. The procedure:
In order to study phagocytosis, peritoneal macrophages were plated at a concentration of 10^6 cells per Petri dish and media including 10^7 Saccharomyces cerevisiae cells, opsonized by mice serum was added. Results were evaluated using the Mann-Whitney test. Phagocytic activity was calculated after determination of percentage of macrophages involved in phagocytes. The phagocytic index was determined by calculating the average number of yeast phagocytosed per one cell. Killing activity was resolved by the number of yeast digested by macrophages after 1.5 h of incubation. Finally, the killing index was determined as follows: [formula]

Another assay has as its system M. bovis 8. The format is in vivo, mice.
The subject of a further assay is IL-2. In words: IL-2 production by Con A stimulated spleen cells (CTLL-2 assay). Format: in vivo, mice. The following applies: 4 days after therapy; Group 7 (0.1 ìg/kg ip) compared to Group 3 (isoniazid control); Con A stimulated spleen cells. The procedure:
In RPMI-1640, spleen cells were diluted to a concentration of 10^7/ml with 10% fetal calf serum, 2 mM L-glutamine and 80 ìg/ml gentamycin. A 100 ìl cell suspension was added to each well of a 96-well culture plate and cytokine production was induced by Con A at a final concentration of 2.5 ìg/ml. A control well included RPMI-1640. For 24 hours, cells were incubated at 37° C. and humidified in 5% CO2. Following incubation, […] of supernatant was removed from each well and stored at −70° C.
In order to determine the IL-2 concentration in cell culture supernatants, the CTLL-2 IL-2 dependent cell line was used. CTLL-IL-2 cells were washed twice in RPMI-1640 and counted with a Goriaev hemocytometer. Supernatants were diluted in 96-well culture plates at dilutions of 1:5, 1:15, 1:45 and 1:135 in a volume of 100 il. IL-2 standard dilutions were also prepared. Cells were diluted to 2×10^5/ml in RPMI-1640 with 10% inactivated fetal calf serum, 2 mM L-glutamine, 80 ìg/ml gentamycin. The 100 ìl suspension was added to each well of the culture plate and incubated for 48 h at 37° C. in 5% CO2 humidity. Ten ìl of 5 i Ci/ml ^3H-thymidine was added to each well 16 h before the end of incubation. Following incubation, the cells were harvested on filters through the use of a semi-automated harvester and samples were counted in a liquid scintillation counter.

Another assay deals with spleen cells. As to the kind of experiment: Spleen cell proliferation (Con A, LPS, tuberculin) from treated infected mice. The format is in vivo. The following applies: after 24 days; Group 3 the isoniazid control group. The procedure: Spleens from mice were harvested aseptically, homogenized in RPMI-1640 medium (Biolot, Russia) and filtered through two layers of sterile gauze. Erythrocytes were lysed in 0.83% percent ammonium chloride solution after centrifugation of the homogenate. Spleen cells were washed twice with RPMI-1640 with 2 mM L-glutamine and […] gentamycin (Sigma, St. Louis, Mo.), then counted using a Goriaev hemocytometer.
Spleen cells and thymic cells were isolated as described above. In vitro, thymic cells were diluted to 10^7/ml in RPMI-1640 with 2 mM L-glutamine, 80 ìg/ml gentamycin and 4% heat-inactivated fetal calf serum (Sigma, St. Louis, Mo.). Spleen cells were diluted to 3×10^6/ml in RPMI-1640 with 2 mM L-glutamine, 80 ìg/ml gentamycin and 20% inactivated fetal calf serum. 0.5 ìg/ml Concanavalin A (Con A, Sigma, St. Louis, Mo.) was used to stimulate thymic cell proliferation. For spleen cell proliferation, 0.5 ìg/ml Con A, 10 ìg/ml lipopolysaccharide (Sigma, St. Louis, Mo.), and 50 ìg/ml tuberculin purified protein derivative (PPD) were utilized. The assay was carried out in 96-well plates and cell cultures were incubated for 72 hours, or 96 hours if tuberculin was used, at 37° C. in humidified 5% CO2, then pulsed with 5 ìl Ci/ml ^3H-thymidine overnight (approximately 16 h) and harvested on filters using a semi-automated harvester (Titertek™, Flow Laboratories, Norway). Filters were dried and proliferation calculated by ^3H-thymidine incorporation by counting samples in a liquid scintillation counter (LKB 1217 Racketa, Wallace, Sweden). Data was expressed in impulses per minute.

[1] abbreviates: 24 days after end of therapy, Group 7 (0.1 ìg/kg ip) versus Group 3 (isoniazid control).

The structures appear in SMILES notation.

`NNC(=O)c1ccncc1` [isoniazid, isonicotinic acid hydrazide, reference compound]: the phagocytic killing with peritoneal macrophages (24 days after treatment, Group 3 (isoniazid), 178.0 in uninfected mice, p=0.05) was 62.0 U. Besides, the Phagocytosis entry with peritoneal macrophages (24 days after treatment, isoniazid treatment group) is “returned to the level seen in uninfected mice”. The molecule also showed a phagocytic activity in the assay on peritoneal macrophages (after 4 days, Group 7 (SCV-07 0.1 ìg/kg ip) compared to Group 3 (isoniazid control), p≦0.05, 64.2% in uninfected mice) of 19.4%. This molecule also came in with a killing in the assay on peritoneal macrophages (after 4 days, SCV-07 versus control, p≦0.05) of 196.4. Further, in the assay on peritoneal macrophages (after 17 days, Group 6 (1.0 ìg/kg ip, 10 injections) versus Group 3 (isoniazid control)), the phagocytic activity worked out at 49.8%. The same molecule displayed a phagocytic index with peritoneal macrophages (after 17 days, Group 6 (1.0 ìg/kg ip, 10 injections) versus Group 3, p=0.05) of 4.91 U. Further, in the assay with M. bovis 8 (setting [1]), the “growth of M bovis cultured from spleens” value was found to be 275±14.1 CFU, the lung weight index was 1.07±0.23 and the spleen weight index is 1.94±0.31. Also, the “increase in body weight” value in the assay on M. bovis 8 (24 days after end of therapy, Group 7 (SCV-07 0.1 ìg/kg ip, 5 injections, with isoniazid) versus Group 3 (isoniazid control)) is 20.7%. For the same molecule, in the assay with M. bovis 8 (isoniazid alone (Group 3), 10 mg/kg subcutaneous, Day 28 of infection), the “lung damage index, difference to untreated mice (Group 2)” value is recorded as “no significant difference”. For the same molecule, in the assay with IL-2, the IL-2 production is 16.6±2.6 U/ml. Besides, the “spleen cell proliferative response (Con A and LPS)” value with spleen cells is recorded as “remained low”.

The values above are taken from patent US20040259806A1 (priority 2001, published 2004).
